Measured values published in article PMC8231556, “Inhibiting Endothelial Cell Function in Normal and Tumor Angiogenesis Using BMP Type I Receptor Macrocyclic Kinase Inhibitors” (Cancers, 2021).

What was measured:
Assay in all cases: radiometric kinase profiling (33 PanQinase)
Assay type in all cases: biochemical
CDK4_cyclinD1 = target: T1, CDK4_cyclinD1 (Homo sapiens, UniProt P11802); details: read-out: Inhibitory effect (%) CDK4_cyclinD1
T1 construct: purchased Proqinase, Germany
Summary of the method: (§1)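 Enzyme/substrate mixes were incubated with [γ-33P]-ATP and compound (added as a 0.1 μM solution in 10% DMSO) at 30 °C for 60 min, then stopped with H3PO4 and washed with NaCl. 33P incorporation was scintillation-counted, and residual activity (%) was normalized to untreated control and background.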

JAK2 = target: T2, JAK2 (Homo sapiens, UniProt O60674); details: read-out: Inhibitory effect (%) JAK2
T2 construct: purchased ProQinase (33PanQinase Activity Assay)
T2 sequence (O60674 whole entry): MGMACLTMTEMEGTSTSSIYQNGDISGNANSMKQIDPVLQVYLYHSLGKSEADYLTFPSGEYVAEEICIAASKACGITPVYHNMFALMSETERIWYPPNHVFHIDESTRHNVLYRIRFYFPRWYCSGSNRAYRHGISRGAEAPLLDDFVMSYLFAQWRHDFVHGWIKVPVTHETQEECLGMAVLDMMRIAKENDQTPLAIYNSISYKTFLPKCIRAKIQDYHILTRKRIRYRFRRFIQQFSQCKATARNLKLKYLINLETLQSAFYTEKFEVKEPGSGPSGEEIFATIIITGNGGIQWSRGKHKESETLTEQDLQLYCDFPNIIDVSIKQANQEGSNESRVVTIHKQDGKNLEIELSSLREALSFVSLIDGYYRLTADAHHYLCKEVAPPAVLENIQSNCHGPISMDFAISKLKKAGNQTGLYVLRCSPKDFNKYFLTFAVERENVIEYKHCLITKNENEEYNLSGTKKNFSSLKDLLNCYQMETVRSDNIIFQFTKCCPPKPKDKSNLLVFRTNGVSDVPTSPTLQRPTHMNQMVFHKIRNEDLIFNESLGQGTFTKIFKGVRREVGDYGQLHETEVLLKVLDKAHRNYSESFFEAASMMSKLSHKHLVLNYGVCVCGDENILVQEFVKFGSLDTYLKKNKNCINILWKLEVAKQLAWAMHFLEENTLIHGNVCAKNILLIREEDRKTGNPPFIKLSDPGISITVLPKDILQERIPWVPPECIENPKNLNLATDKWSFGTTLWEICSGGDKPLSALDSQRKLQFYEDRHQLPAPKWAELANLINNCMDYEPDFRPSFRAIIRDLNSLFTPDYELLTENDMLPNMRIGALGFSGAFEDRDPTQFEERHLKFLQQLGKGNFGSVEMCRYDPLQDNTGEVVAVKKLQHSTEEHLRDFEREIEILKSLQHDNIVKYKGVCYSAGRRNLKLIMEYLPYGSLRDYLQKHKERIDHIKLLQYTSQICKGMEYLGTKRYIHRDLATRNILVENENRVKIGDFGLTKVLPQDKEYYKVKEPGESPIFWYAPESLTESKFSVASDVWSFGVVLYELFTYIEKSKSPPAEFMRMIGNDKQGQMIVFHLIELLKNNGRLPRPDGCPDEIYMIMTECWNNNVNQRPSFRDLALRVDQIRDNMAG
Summary of the method: as §1

DDR2 = target: T3, DDR2 (Homo sapiens, UniProt Q16832); details: read-out: Inhibitory effect (%) DDR2
T3 construct: purchased Proqinase, Germany
T3 sequence (Q16832 22-855): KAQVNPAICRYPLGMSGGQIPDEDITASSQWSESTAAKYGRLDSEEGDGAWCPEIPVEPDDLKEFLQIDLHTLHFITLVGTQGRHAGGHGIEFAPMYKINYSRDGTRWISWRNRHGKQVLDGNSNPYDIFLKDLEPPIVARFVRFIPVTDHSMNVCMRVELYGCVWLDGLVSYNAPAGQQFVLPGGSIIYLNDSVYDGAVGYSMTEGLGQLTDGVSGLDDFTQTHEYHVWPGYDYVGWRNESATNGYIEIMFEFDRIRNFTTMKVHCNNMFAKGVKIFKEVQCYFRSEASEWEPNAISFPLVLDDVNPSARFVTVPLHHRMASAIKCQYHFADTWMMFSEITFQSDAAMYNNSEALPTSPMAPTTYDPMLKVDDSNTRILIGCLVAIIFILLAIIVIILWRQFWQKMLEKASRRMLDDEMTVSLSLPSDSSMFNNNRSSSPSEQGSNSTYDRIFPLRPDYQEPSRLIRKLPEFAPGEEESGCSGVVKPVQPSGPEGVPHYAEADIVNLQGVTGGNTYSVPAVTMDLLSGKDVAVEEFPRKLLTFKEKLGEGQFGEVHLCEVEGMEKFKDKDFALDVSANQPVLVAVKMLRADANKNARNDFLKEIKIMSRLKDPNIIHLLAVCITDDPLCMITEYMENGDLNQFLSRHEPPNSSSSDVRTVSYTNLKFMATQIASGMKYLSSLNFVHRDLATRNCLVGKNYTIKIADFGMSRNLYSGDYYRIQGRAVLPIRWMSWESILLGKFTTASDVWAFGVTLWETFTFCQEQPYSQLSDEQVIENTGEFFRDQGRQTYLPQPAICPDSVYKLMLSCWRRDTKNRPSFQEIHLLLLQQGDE
Summary of the method: as §1

ABL1 = target: T4, ABL1 (Homo sapiens, UniProt P00519); details: read-out: Inhibitory effect (%) ABL1
T4 construct: purchased Proqinase, Germany
T4 sequence (P00519 whole entry): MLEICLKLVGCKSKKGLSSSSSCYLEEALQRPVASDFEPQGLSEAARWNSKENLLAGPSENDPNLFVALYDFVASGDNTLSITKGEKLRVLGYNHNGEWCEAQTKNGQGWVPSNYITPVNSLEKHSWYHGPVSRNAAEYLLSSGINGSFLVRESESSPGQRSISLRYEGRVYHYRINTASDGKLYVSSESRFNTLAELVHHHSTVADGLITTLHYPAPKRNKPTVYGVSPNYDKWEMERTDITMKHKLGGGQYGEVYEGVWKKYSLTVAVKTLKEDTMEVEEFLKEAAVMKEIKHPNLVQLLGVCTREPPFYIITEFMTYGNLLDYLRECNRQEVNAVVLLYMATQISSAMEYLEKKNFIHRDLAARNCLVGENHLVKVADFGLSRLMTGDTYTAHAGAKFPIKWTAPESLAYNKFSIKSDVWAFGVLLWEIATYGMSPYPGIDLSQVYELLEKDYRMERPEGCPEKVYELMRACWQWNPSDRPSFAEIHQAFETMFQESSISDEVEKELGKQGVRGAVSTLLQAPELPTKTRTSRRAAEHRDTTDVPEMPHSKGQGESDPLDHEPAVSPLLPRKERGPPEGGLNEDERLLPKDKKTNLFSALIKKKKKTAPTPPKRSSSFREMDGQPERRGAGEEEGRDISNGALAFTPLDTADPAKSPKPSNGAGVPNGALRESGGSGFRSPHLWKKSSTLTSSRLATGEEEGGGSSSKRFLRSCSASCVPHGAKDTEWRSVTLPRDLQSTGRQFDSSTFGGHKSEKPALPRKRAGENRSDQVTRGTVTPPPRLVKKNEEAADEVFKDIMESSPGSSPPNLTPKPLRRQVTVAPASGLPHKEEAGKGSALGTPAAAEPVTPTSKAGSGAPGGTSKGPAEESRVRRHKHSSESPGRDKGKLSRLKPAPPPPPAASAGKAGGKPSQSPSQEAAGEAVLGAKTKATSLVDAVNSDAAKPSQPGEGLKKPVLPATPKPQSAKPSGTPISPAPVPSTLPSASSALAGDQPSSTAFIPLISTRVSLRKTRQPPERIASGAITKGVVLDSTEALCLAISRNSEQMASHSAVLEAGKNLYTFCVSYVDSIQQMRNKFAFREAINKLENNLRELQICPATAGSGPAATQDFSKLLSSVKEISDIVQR
Summary of the method: as §1

GSG2 = target: T5, GSG2 (Homo sapiens, UniProt Q8TF76); details: read-out: Inhibitory effect (%) GSG2
T5 construct: purchased ProQinase (33PanQinase Activity Assay)
T5 sequence (Q8TF76 1-798): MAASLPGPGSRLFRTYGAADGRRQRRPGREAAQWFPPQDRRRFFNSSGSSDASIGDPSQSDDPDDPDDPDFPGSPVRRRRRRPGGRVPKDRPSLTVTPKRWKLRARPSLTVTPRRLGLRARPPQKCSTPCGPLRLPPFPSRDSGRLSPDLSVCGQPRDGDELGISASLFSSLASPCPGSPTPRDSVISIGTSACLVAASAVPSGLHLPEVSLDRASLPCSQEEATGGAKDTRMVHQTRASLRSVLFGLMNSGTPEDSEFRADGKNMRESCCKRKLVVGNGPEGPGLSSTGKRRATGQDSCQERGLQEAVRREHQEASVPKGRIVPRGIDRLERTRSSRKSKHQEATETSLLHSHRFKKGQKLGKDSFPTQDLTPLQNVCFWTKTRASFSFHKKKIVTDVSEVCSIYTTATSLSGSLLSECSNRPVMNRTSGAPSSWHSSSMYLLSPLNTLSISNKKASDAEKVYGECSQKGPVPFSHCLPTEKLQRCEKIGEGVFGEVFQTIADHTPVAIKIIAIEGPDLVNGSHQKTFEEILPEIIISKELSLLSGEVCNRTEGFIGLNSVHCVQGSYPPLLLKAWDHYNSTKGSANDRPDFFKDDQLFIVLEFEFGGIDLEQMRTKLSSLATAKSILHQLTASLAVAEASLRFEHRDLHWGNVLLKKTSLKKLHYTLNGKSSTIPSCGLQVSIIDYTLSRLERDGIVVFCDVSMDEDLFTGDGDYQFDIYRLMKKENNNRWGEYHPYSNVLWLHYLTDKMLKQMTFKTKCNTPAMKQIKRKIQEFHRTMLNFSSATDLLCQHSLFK
Summary of the method: as §1

PDK1 = target: T6, PDK1 (Homo sapiens, UniProt O15530); details: read-out: Inhibitory effect (%) PDK1
T6 construct: purchased ProQinase (33PanQinase Activity Assay)
T6 sequence (O15530 1-556): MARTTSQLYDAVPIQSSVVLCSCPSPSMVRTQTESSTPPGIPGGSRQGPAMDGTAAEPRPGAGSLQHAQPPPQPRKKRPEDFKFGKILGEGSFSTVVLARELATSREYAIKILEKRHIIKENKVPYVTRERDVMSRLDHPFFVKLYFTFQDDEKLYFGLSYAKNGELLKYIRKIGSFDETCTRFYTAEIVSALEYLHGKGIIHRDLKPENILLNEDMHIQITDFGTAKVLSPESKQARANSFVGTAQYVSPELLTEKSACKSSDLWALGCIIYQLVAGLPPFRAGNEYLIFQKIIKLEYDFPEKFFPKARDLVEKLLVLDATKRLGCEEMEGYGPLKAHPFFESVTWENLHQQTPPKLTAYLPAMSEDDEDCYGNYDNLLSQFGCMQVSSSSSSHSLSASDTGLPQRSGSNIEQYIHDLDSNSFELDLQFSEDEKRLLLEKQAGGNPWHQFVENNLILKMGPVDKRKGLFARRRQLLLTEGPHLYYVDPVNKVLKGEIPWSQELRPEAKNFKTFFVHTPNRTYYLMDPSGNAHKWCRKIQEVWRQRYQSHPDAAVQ
Summary of the method: as §1

CAMK1D = target: T7, CAMK1D (Homo sapiens, UniProt Q8IU85); details: read-out: Inhibitory effect (%) CAMK1D
T7 construct: purchased Proqinase, Germany
T7 sequence (Q8IU85 whole entry): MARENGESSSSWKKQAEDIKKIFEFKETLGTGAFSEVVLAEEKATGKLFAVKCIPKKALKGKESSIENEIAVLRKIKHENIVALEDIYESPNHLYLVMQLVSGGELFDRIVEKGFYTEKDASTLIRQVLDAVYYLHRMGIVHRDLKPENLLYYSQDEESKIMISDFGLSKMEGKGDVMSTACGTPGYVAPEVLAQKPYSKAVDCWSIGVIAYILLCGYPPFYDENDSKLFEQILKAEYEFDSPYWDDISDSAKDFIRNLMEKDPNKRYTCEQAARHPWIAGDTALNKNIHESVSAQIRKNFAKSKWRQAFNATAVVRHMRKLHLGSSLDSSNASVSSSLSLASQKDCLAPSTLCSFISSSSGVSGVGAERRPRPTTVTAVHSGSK
Summary of the method: as §1

T1 sequence (P11802 whole entry): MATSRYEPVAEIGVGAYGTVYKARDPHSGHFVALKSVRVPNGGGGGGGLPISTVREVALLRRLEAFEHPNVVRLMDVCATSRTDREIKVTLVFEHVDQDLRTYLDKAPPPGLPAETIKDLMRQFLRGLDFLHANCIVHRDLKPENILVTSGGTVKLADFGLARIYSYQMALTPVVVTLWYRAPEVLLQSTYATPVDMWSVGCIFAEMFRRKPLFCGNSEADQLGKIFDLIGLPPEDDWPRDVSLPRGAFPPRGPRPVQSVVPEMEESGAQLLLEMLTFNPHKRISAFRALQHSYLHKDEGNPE
T1 sequence (P24385 whole entry partner): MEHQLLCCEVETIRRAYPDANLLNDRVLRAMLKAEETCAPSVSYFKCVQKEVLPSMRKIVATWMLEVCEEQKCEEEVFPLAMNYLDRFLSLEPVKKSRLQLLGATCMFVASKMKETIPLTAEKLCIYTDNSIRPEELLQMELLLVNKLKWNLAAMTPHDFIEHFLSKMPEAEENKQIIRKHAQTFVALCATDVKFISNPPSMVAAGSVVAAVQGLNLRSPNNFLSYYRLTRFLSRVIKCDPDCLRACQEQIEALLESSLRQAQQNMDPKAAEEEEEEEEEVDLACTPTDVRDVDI

Compound | inhibition at 0.1 µM (CDK4_cyclinD1) [%] | inhibition at 0.1 µM (JAK2) [%] | inhibition at 0.1 µM (DDR2) [%] | inhibition at 0.1 µM (ABL1) [%] | inhibition at 0.1 µM (GSG2) [%] | inhibition at 0.1 µM (PDK1) [%] | inhibition at 0.1 µM (CAMK1D) [%]
c1ccc2c(-c3cnn4cc(-c5ccc(N6CCNCC6)cc5)cnc34)ccnc2c1 [LDN-193189, reference compound] | -10.1 | 5.83 | 10.1 | 12.5 | -5.75 | -8.72 | 4.59
CN1CCc2cccc(c2)Nc2nccc(n2)N2CCCc3cc(ccc32)C1 [OD16] | 20.3 | 50.2 | 33.5 | -20.1 | 6.26 | -7.16 | -5.9
CN1CCC(=O)NCCNc2ccn3ncc(c3n2)-c2cccc(c2)C1 [OD29] | -13.8 | 14.4 | 12.9 | 18.7 | 34.6 | -1.4 | -7.41
